Laboratory results taken from the OPERA property sets (Mansouri et al. 2018).
≈ marks a conversion by molar mass, not a printed value.

Conditions: for solubility: 20 °C

| Compound | solubility | logP |
| --- | --- | --- |
| O=[N+]([O-])c1ccc(O)cc1 | 83400 µM (≈ 11600 µg/mL) | – |
| Cc1ccc([N+](=O)[O-])c(O)c1 | 1780 µM (≈ 272 µg/mL) | 2.31 |
| O=[N+]([O-])c1cc(-c2ccccc2)ccc1O | 38.9 µM (≈ 8.37 µg/mL) | 3.71 |
| Cc1cccc(O)c1[N+](=O)[O-] | – | 2.29 |
| CCC(C)c1ccc(O)c([N+](=O)[O-])c1 (stereo not given) | 144 µM (≈ 28.2 µg/mL) | 3.84 |
| O=[N+]([O-])c1cc(Cl)ccc1O | 812 µM (≈ 141 µg/mL) | 2.46 |
| O=Cc1ccc(O)c([N+](=O)[O-])c1 | 1120 µM (≈ 187 µg/mL) | 1.48 |
| O=[N+]([O-])c1cc(C(F)(F)F)ccc1O | – | 2.34 |
| COc1ccc(O)c([N+](=O)[O-])c1 | 1450 µM (≈ 245 µg/mL) | 2.02 |
| O=[N+]([O-])c1ccc(F)cc1O | – | 1.91 |
| Cc1cc(O)ccc1[N+](=O)[O-] | 7760 µM (≈ 1190 µg/mL) | 2.48 |
| Cc1cc(O)c([N+](=O)[O-])cc1Cl | 40.7 µM (≈ 7.64 µg/mL) | 2.93 |
